Reference: patent US11865158B2, “Process and composition matter of nanoparticle formulation for systemic treatment of sepsis” (PURDUE RESEARCH FOUNDATION, priority 2019, dated 2024)

What was measured:
[1] = system: LPS-induced NF-kB/AP-1 activation in THP1-XBlue-MD2-CD14 cells; assay: In vitro anti-LPS activity, SEAP reporter assay, LPS pretreated and supernatant added to cells; assay type: cell-based, human; conditions: 10 ng/mL LPS, equivalent to PMB 9.5-18.9 μg/mL
Protocol: To investigate if D-TZP can neutralize LPS, a reporter cell line responding to LPS was incubated with LPS and free PMB or D-TZP's (with different amounts of PMB). THP1-XBlue-MD2-CD14, derived from the human monocytic THP-1 cell line, overexpresses MD2 and CD14 to amplify the response to TLR4 agonist LPS. Color change of the Quanti-Blue reagent (NF-kB/AP-1-inducible secreted embryonic alkaline phosphatase (SEAP) reporter protein) reflects NF-kB/AP-1 activation due to LPS. LPS-induced SEAP production was measured at 620 nm. The reporter cells with 10 ng/mL of LPS expressed a high level of SEAP as compared to non-challenged cells. […] A supernatant was obtained from each mixture to separate unbound LPS and added to THP1-XBlue-MD2-CD14 cells.
In vitro anti-LPS activity. Five microliters of LPS ([…]) was mixed with 15 μL of free PMB, D-TZP, or TZP at different concentrations in a flat-bottom 96-well plate. THP1-XBlue-MD2-CD14 cell suspension (10^5 cells in 180 μL) was then added to the mixtures. After 24 h incubation, cells were centrifugated at 233 rcf for 5 min. Twenty microliters of the cell medium was mixed with the Quanti-Blue reagent. After 2 h incubation, the color was measured at 620 nm by a Spectra Max M3 microplate reader (Molecular Devices, Sunnyvale, CA). […] The medium was analyzed in the same manner as above.

[2] = system: J774a.1 macrophages; assay: Effect on cell membrane, SEM; assay type: cell-based; conditions: eq. to 150 μg/mL PMB, 12 h
Protocol: Effect of PMB and D-TZP on cell membrane. The effect of D-TZP on J774A.1 cell membrane was monitored by two methods (scanning electron microscopy and confocal microscopy). For scanning electron microscopy, J774A.1 macrophages were plated in a 6-well plate at a density of 3×10^5 cells per well with 3 mL of complete medium. After overnight incubation at 37° C. in a 5% CO2 atmosphere, the cells were treated with either free PMB or D-TZP at a concentration equivalent to 150 μg/mL PMB for 12 h. The cells were centrifuged at 233 relative centrifugal force (rcf) for 3 min. The medium was removed, and 2.5% glutaraldehyde solution was added for fixation overnight at 4° C. The cells were then rinsed three times with water (5 min each) and incubated in 2% Osmium tetroxide for 1 h. After rinsing another three times with water (5 min each), the cells were dehydrated with a series of ethanol gradients (50%, 75%, 95%) for 10 minutes at each step. The dehydrated cells were rinsed with 100% ethanol three times for 10 minutes each time, stored in a 1:1 mixture of HMDS and ethanol in 1:1 for 30 min, and rinsed with 100% HMDS for 30 min twice. After overnight drying, the cells were placed on a carbon tape attached to an aluminum stud and coated with platinum for SEM analysis. The morphology of treated J774a.1 cells then was observed by a FEI NOVA NanoSEM scanning electron microscope (SEM). […]

Substance: polymyxin B [PMB]
- SEAP production, LPS pretreated for 1 h, supernatant added to cells [1]: significant reduction in SEAP production
- cell membrane morphology by SEM [2]: deformed membrane morphology
